Assay results as given in patent US20050038102A1, “Upregulation of type III endothelial cell Nitric Oxide Synthase by HMG-CoA reductase inhibitors” (BRIGHAM AND WOMENS HOSPITAL, priority 1997, published 2005).

How the values were obtained:
ecNOS protein = assay: Western blotting of ecNOS protein levels in endothelial cells; assay type: cell-based, human; conditions: for increase in ecNOS protein levels / increase in ecNOS protein levels / ecNOS expression: 0.1 mmol/L alone
Protocol: Human endothelial cells were harvested from saphenous veins and cultured as described (15). For transfection studies, bovine aortic endothelial cells of less than 3 passages were cultured in a growth medium containing DMEM (Dulbecco's Modified Eagle's Medium), 5 mmol/L L-glutamine (Gibco), and 10% fetal calf serum (Hyclone Lot# 114577). For all experiments, the endothelial cells were placed in 10% lipoprotein-deficient serum (Sigma, Lot#26H9403 1) for 48 h prior to treatment conditions. […] Cellular viability as determined by cell count, morphology, and Trypan blue exclusion was maintained for all treatment conditions.
Cellular proteins were prepared and separated on SDS/PAGE as described (Liao, J K et al., J Biol Chem, 1995, 270:319-324.). Immunoblotting was performed using a murine monoclonal antibody to human ecNOS (1:400 dilution, Transduction Laboratories, Lexington, Ky.). Immunodetection was accomplished using a sheep anti-mouse secondary antibody (1:4000 dilution) and the enhanced chemiluminescence (ECL) kit (Amersham Corp., Arlington Heights, Ill.). Autoradiography was performed at 23° C. and the appropriate exposures were quantitated by densitometry.
Human endothelial cells were harvested from saphenous veins using Type II collagenase (Worthington Biochemical Corp., Freehold, N.J.) as previously described. Cells of less than three passages were grown to confluence in a culture medium containing Medium 199, 20 mM HEPES, 50 mg/ml ECGS (Collaborative Research Inc., Bedford, Mass.), […] heparin sulfate, 5 mM L-glutamine (Gibco), 5% fetal calf serum (Hyclone, Logan, Utah), and antibiotic mixture of penicillin (100 U/ml)/ streptomycin ([…])/Fungizone (1.25 mg/ml). For all experiments, the endothelial cells were grown to confluence before any treatment conditions. In some experiments, cells were pretreated with actinomycin D (5 mg/ml) for 1 h prior to treatment with HMG-CoA reductase inhibitors. […]

ecNOS mRNA [1] = assay: ecNOS mRNA half-life in the presence of actinomycin D; assay type: cell-based, human
ecNOS mRNA [2] = assay: Quantitative RT-PCR of ecNOS mRNA in mouse aortae and brains; assay type: in vivo, mice
wild type mice = assay: Regional cerebral blood flow by laser-Doppler flowimetry, wild type and simvastatin-treated mice; assay type: in vivo
Protocol: (§1) Regional cerebral blood flow (rCBF) was monitored by laser-Doppler flowimetry in groups of urethane-anesthetized, ventilated mice. Additional physiological variables were also monitored in the mice, including mean arterial blood pressure (MABP), heart rate, blood pH, PaO2, and PaCO2.
(§2) FIG. 5 is a bar graph showing regional CBF changes in wild type and eNOS null mice for 40 min after L-arginine (450 mg/kg) or saline infusion at a constant rate of 100 microliter/kg/min over 15 min. The number of mice in each group is indicated in parenthesis. Error bars denote standard error of the mean (SEM), and an asterisk (*) denotes statistically significant difference (P<0.05) compared with baseline control by one-way ANOVA followed by Fisher's protected least-squares difference test.
Error bars denote SEM and an asterisk (*) denotes statistically significant difference (P<0.05) compared with baseline control by one-way ANOVA followed by Fisher's protected least-squares difference test.

ecNOS = assay: Assay for ecNOS activity (LNMA-inhibitable nitrite production); assay type: cell-based, human; conditions: higher concentration
wildtype SV-129 mice = assay: Murine model of cerebral vascular ischemia (MCA occlusion), wild-type; assay type: in vivo; conditions: lovastatin treatment
Excerpt: The neurological motor deficit score improved in simvastatin-treated mice (n-18) by almost 2-fold compared to that of controls (n=12) (0.8±0.2 vs. 1.7±0.2, p<0.01).

eNOS null mice = assay: Regional cerebral blood flow by laser-Doppler flowimetry, eNOS null mice; assay type: in vivo; conditions: L-arginine 450 mg/kg, i.v., 40 minute recording period
Protocol: as §1, with “L-arginine infusion at 300 mg/kg, i.v., caused modest (10%) and variable elevations in regional cerebral blood flow (rCBF) after infusion in several preliminary experiments (n=4, data not shown). […] Regional” for “Regional”
as §2

[3] = 1 mmol/L alone (concentration series), 48 h
[4] = 10 mmol/L alone (concentration series), 48 h

CCC(C)(C)C(=O)O[C@H]1C[C@@H](C)C=C2C=C[C@H](C)[C@H](CC[C@@H]3C[C@@H](O)CC(=O)O3)[C@H]21 [simvastatin]
increase in ecNOS expression (ecNOS protein; 0.01 mmol/L alone (series 0.01 to 10 mmol/L), 48 h): 1%
increase in ecNOS protein levels (ecNOS protein; 12 h): 4%
increase in ecNOS protein levels (ecNOS protein; 24 h): 21%
increase in ecNOS protein levels / ecNOS expression (ecNOS protein; 48 h): 80%
increase in ecNOS protein levels (ecNOS protein; 72 h): 90%
increase in ecNOS protein levels (ecNOS protein; 84 h): 95%
increase in ecNOS expression (ecNOS protein; [3]): 190%
increase in ecNOS expression (ecNOS protein; [4]): 310%
decrease in ecNOS protein level (ecNOS protein; simvastatin 0.1 mmol/L + ox-LDL 50 mg/ml, 24 h): 15%
ecNOS protein levels increased above basal expression (ecNOS protein; simvastatin 0.1 mmol/L + ox-LDL 50 mg/ml, 72 h): 110%
ecNOS protein levels increased above basal expression (ecNOS protein; simvastatin 0.1 mmol/L + ox-LDL 50 mg/ml, 96 h): 124%
ecNOS expression above basal expression (ecNOS protein; simvastatin 1 mmol/L + ox-LDL 50 mg/ml (TBARS 15.1 nmol/mg), 48 h): 150%
ecNOS protein levels above baseline (ecNOS protein; simvastatin 10 mmol/L + ox-LDL 50 mg/ml, 48 h): 210%±12%
half-life of ecNOS mRNA (t½) (ecNOS mRNA [1]; simvastatin 0.1 mmol/L + ox-LDL): 22 ± 3 h
half-life of ecNOS mRNA (t½) (ecNOS mRNA [1]; simvastatin alone): 43 ± 4 h
increase in ecNOS expression in infarcted, ipsilateral hemisphere compared to contralateral side (ecNOS mRNA [2]; simvastatin 2 mg/kg, 14 days, brain, with respect to GAPDH mRNA): 1.5-to 2 fold
increase of ecNOS message compared to that of GAPDH, aortae (ecNOS mRNA [2]; simvastatin-treated mice, dose-dependent): 3 fold
increase in baseline rCBF (wild type mice; chronic daily administration of simvastatin alone): 25%

CC[C@H](C)C(=O)O[C@H]1C[C@@H](C)C=C2C=C[C@H](C)[C@H](CC[C@@H]3C[C@@H](O)CC(=O)O3)[C@H]21 [lovastatin]
increase in ecNOS protein levels / ecNOS expression (ecNOS protein; 48 h): 10%
increase in ecNOS expression (ecNOS protein; [3]): 105%
increase in ecNOS expression (ecNOS protein; [4]): 180%
potency in upregulating ecNOS protein levels, less potent than simvastatin (ecNOS protein; equimolar concentrations): 10 fold
effect on ecNOS expression (ecNOS protein; not chemically-activated): had no effect on ecNOS expression
concentration needed for similar findings, compared to that of simvastatin (ecNOS): 10 fold
reduction of cerebral infarct size (wildtype SV-129 mice): also occurred with lovastatin treatment, albeit at higher relative concentrations

N=C(N)NCCC[C@H](N)C(=O)O [L-arginine]
elevation in regional cerebral blood flow (rCBF) (wild type mice; L-arginine 300 mg/kg, i.v., preliminary experiments): 10%
time at which increase in rCBF began (wild type mice; L-arginine 450 mg/kg, i.v., wild type mice): 5 to 10 min
maximum increase in rCBF above baseline (wild type mice; L-arginine 450 mg/kg, i.v., wild type mice, at 20-25 min): 26%
additional time for which rCBF increases were sustained (wild type mice; L-arginine infusion in simvastatin-treated mice): 20 min
maximum increase in rCBF over simvastatin baseline (wild type mice; L-arginine infusion in simvastatin-treated mice, at 15-20 min): 29-31%
rCBF change (eNOS null mice): −4 to +5%

L-mevalonate
reduction of ecNOS protein compared to cells treated with ox-LDL and simvastatin (ecNOS protein; addition of L-mevalonate 100 mmol/L to ox-LDL + simvastatin 1 mmol/L): 50%±5%
observable adverse effects on cellular morphology (human endothelial cell): no observable adverse effects
